Test results as given in patent US20070179143A1 (priority 2003, published 2007).

Key:
[1] = system: human lung cancer cell line NCI-H460; test: Inhibiting effect on tumor growth, NCI-H460 xenografted nude mice
Description: Samples for the experiment were stored in a refrigerator all the time. […] The prepared sample is subject to be precipitated, so that tip sonication was performed right before the administration to disperse it well.
7 week-old female S.P.F. BALB/c nude mice, provided by Charles River Co., Japan, were used as test animals. The test animals were adapted in a Hepa-filter room over a week before the test. The temperature was 21±2° C., humidity was 55±5% and 12-hour light and dark cycle was automatically repeated in that lab. Solid feed (Cheiluedang) was sterilized by radioactive rays and drinking water was also sterilized by autoclave. Feed and water were taken by the animal freely. Cancer cell line used in this experiment was NCI-H460 (human lung tumor cell line) provided by Korea Research Institute of Bioscience and Biotechnology.
The tumor cell line, stored in liquid nitrogen, was thawed and cultured in a 37° C., 5% CO2 incubator for a required time. Upon completing the culture, all the cells were recovered and cell concentration of the culture fluid was adjusted using PBS to 3×10^7 cells/ml. The adjusted cell culture solution was injected hypodermically into armpit between right shoulder girdle and chest wall by 0.3 ml per mouse. From the next day of grafting, NCI-H460 xenografted nude mice were administered intraperitoneal everyday with the sample solution by 0.2 ml/20 g of weight, once a day.
After the grafting of tumor cells, the volume of a tumor in each individual was measured in three dimensions by using a vernier caliper, which was represented in the below <Mathematical Formula 2>. Tumor volume=(length×width×height)/2 <Mathematical Formula 2>
Body weight changes of animal were measured three times a week. Each xenografted nude mouse was sacrificed to separate a tumor, which was then weighed.

[2] = system: A549; test: Cytotoxicity test to cancer cell lines (SRB method), A549; settings: Homo sapiens, A549, 48 h, read-out: Cytotoxicity ED50 A549
[3] = Body weight change of NCI-H460 xenografted nude mice; format: in vivo, BALB/c nude mouse
[4] = system: MCF7; test: Cytotoxicity test to cancer cell lines (SRB method), MCF7; settings: read-out: Cytotoxicity ED50 MCF-7, MCF-7, 48 hours
Description: Cytotoxicity to A549 (Korea Research Institute of Chemical Technology), SK-OV-3 (Korea Research Institute of Chemical Technology), SK-MEL-2 (Korea Research Institute of Chemical Technology), HCT-15 (Korea Research Institute of Chemical Technology) and MCF7 (Korean Cell Line Bank, Seoul National University School of medicine) cells was measured by Sulforhodamin-B (SRB) method (1989, National Cancer Institute (NCI)) which was developed for the measurement of in vitro anticancer activity of a drug. Cells were separated using 0.25% trypsin-EDTA solution, leading to the preparation of a cell suspension by 5×10^318 2×10^4 cells/well. Then, the suspension was distributed into a 96 well plate by 100 μl/well, which was cultured in a 37° C., 5% CO2 incubator for 24 hours. Compounds prepared in examples of the present invention were used as a sample. Precisely, the compound was dissolved in dimethylsulfoxide and diluted with RPMI 1640 medium before being used as a sample. The final concentration of the sample used varied ranging 1 μM˜0.00001 μM. The medium was removed from the 96 well plate and then diluted sample solution was added by 100 μl/well, followed by further culture in a 37° C., 5% CO2 incubator for 48 hours. Tz (time zero) plate was collected from the point of adding the sample. Upon completing the culture, the medium was removed from each well along with Tz plate, then 10% trichloroacetic acid (TCA) was added by 100 μl/well. The plate was left at 4° C. for 1 hour to let cells be fixed on the floor of the plate. After cells were fixed completely, the plate was washed with water 5-6 times to remove the remaining trichloroacetic acid solution completely and moisture was completely dried at room temperature. 0.4% Sulforhodamine-B was dissolved in 1% acetic acid solution to prepare a staining solution. Cells were stained for 30 minutes with a dye added by 100 μl to each well of the completely dried plate. Then, the plate was washed with 1% acetic acid solution 5-6 times to remove sulforhodamine-B remained uncombined with cells. Then, the plate was dried at room temperature. 10 mM Tris solution was added by 100 μ/well thereto to dissolve the dye, and optical density (OD) was measured at 520 nm with a micro plate reader.
ED50 (concentration that inhibits cancer cell growth 50%, 5.0% effective dose, nM/ml) of the sample to cancer cell was calculated as follows. OD value at the point of beginning the culture with the sample was determined as Tz (time zero) value. OD value of a well to be cultured without the sample was determined as a control value (C). OD value of a well pretreated with the sample was determined as experimental value (T). After calculating Tz, C and T, cytotoxicity of the sample was measured by the below <Mathematical Formula 1>. T≦Tz, (T−Tz)/(C−Tz)×100 T>Tz, (T−Tz)/Tz×10,0 <Mathematical Formula 1>
ED50, the concentration that can inhibit cancer cell growth by 50%, was calculated by using a regression analysis of lotus program based on the degree of cytotoxicity obtained by the <Mathematical Formula 1>.

[5] = system: SK-MEL-2; test: Cytotoxicity test to cancer cell lines (SRB method), SK-MEL-2; format: cell-based; settings: Homo sapiens, SK-MEL-2, 48 h, read-out: Cytotoxicity ED50 SK-MEL-2
[6] = system: HCT-15; test: Cytotoxicity test to cancer cell lines (SRB method), HCT-15; settings: Homo sapiens, HCT-15, 48 h, read-out: Cytotoxicity ED50 HCT15
[7] = system: SK-OV-3; test: Cytotoxicity test to cancer cell lines (SRB method), SK-OV-3; format: cell-based; settings: Homo sapiens, SK-OV-3, 48 h, read-out: Cytotoxicity ED50 SK-OV-3
[8] = system: ICR mice; test: in vivo; settings: for Death Total: ICR mice, 7 days, deaths/animals; for Test Day (Death) 2: deaths on day 2; for Test Day (Death) 5: deaths on day 5; for Test Day (Death) 1: deaths on day 1
Description: (§1) 5-week-old ICR mice having the weight of 25-35 g (SPF, SLC Co. Japan) were used as test animals. A pair of female and male of the mice was given for the test of each compound. Group T2, T3, T4 and T5 were arranged (10 animals per group) for the test of acute toxicity of the compound prepared in the Example 12. […] Control group (T1) was administered with only a solvent without the compound of the Example 12.
(§2) For comparison, colchicine was injected in the test animals by the same method as described in the above. The group treated with colchicine was composed of 6 mice.
(§3) Taxol produced by Bristol Myers Sqibb Co. was also used for comparison, and the injection and the test of acute toxicity were performed by the same method as described in the above.

[9] = in vivo; settings: ICR, mouse, in vivo
Description: as §1, §2, §3

[10] = 2 mg/kg intraperitoneal once a day
[11] = 10 mg/kg intraperitoneal once a day, Day 14
[12] = 10 mg/kg intraperitoneal once a day
[13] = 2.5 mg/kg intraperitoneal once a day

## COc1cccc2c1C(=O)c1c(O)c3c(c(O)c1C2=O)C[C@@](O)(C(=O)CO)C[C@@H]3O[C@H]1C[C@H](N)[C@H](O)[C@H](C)O1 [Doxorubicin, reference compound]
[1]; 2 mg/kg intraperitoneal once a day, Day 14
  Tumor Weight Day 14: 534.1 ± 87.9 mg
[2]
  EC50: 13 nM
[3]; [10]
  Body weight Change Day 1: 100.0 ± 0.0%
  Body weight Change Day 3: 105.0 ± 4.1%
  Body weight Change Day 7: 103.9 ± 5.5%
  Body weight Change Day 9: 100.5 ± 4.6 %
  Body weight Change Day 11: 96.4 ± 3.5 %
  Body weight Change Day 14: 85.1 ± 1.8 %
[4]
  EC50: 50 nM
[5]
  EC50: 16 nM
[6]
  EC50: 25 nM
[7]
  EC50: 47 nM

## COc1cc2c(c(OC)c1OC)-c1ccc(OC)c(=O)cc1[C@@H](NC(C)=O)CC2 [Colchicine]
[8]; 0.5 mg/kg
  Death Total: 0/6
[8]; 1.0 mg/kg
  Death Total: 0/6
[8]; 2.0 mg/kg
  Death Total: 3/6
[8]; 2.0 mg/kg, deaths on day 3
  Test Day (Death) 3: 1
[8]; 2.0 mg/kg, deaths on day 6
  Test Day (Death) 6: 2
[8]; 5.0 mg/kg
  Death Total: 5/5
  Test Day (Death) 2: 3
  Test Day (Death) 5: 1
[8]; 5.0 mg/kg, deaths on day 4
  Test Day (Death) 4: 1
[9]; both
  LD50 at 7 days: 2 mg/kg
[2]
  EC50: 21 nM
[5]
  EC50: 6 nM
[6]
  EC50: 9 nM
[7]
  EC50: 18 nM

## CCOc1cc2c(c(OC)c1OC)-c1ccc(SC)c(=O)cc1[C@@H](NC(=O)c1cccc(CO[N+](=O)[O-])c1F)CC2 [Example 8, N-[(7S)-3-ethoxy-1,2-dimethoxy-10-methylsulfanyl-9-oxo-5,6,7,9-tetrahydro-benzo[a]heptalen-7-yl]-2-fluoro-3-nitrooxymethyl-benzamide]
[1]; 10 mg/kg
  inhibition rate of the tumor volume: 85%
[1]; 10 mg/kg intraperitoneal once a day, Day 0
  Tumor volume Day 0: 0.0 ± 0.0
[1]; 10 mg/kg intraperitoneal once a day, Day 4
  Tumor volume Day 4: 18.0 ± 3.7
[1]; 10 mg/kg intraperitoneal once a day, Day 7
  Tumor volume Day 7: 25.2 ± 12.8
[1]; 10 mg/kg intraperitoneal once a day, Day 9
  Tumor volume Day 9: 29.6 ± 13.8
[1]; 10 mg/kg intraperitoneal once a day, Day 11
  Tumor volume Day 11: 35.2 ± 14.0
[1]; [11]
  Tumor Weight Day 14: 143.4 ± 57.8 mg
  Tumor volume Day 14: 44.5 ± 15.0
[1]; comparing to solvent only (V.C-1, V.C-2) or positive control (taxol, adriamycin)
  size and weight of a tumor (in words): remarkably decreased
[2]
  EC50: 0.02 nM
[3]; [12]
  Body weight Change Day 1: 100.0 ± 0.0%
  Body weight Change Day 3: 103.5 ± 2.2%
  Body weight Change Day 7: 99.8 ± 4.3 %
  Body weight Change Day 9: 92.3 ± 4.1 %
  Body weight Change Day 11: 89.3 ± 3.7 %
  Body weight Change Day 14: 89.4 ± 5.3 %
[3]; comparing to solvent only or positive control
  decrease of the weight of the mouse: about 10%
[4]
  EC50: 0.01 nM
[5]
  EC50: 0.01 nM
[6]
  EC50: 0.03 nM
[7]
  EC50: 0.04 nM

## COc1cc2c(c(OC)c1OC)-c1ccc(SC)c(=O)cc1[C@@H](NC(=O)c1ccc(CO[N+](=O)[O-])s1)CC2 [Example 6, 5-nitrooxymethyl-thiophene-2-carboxylic acid-[(7S)-1,2,3-trimethoxy-10-methylsulfanyl-9-oxo-5,6,7,9-tetrahydro-benzo[a]heptalen-7-yl]-amide]
[2]
  EC50: 0.7 nM
[4]
  EC50: 0.16 nM
[5]
  EC50: 0.08 nM
[6]
  EC50: 0.27 nM
[7]
  EC50: 0.37 nM

## CC(=O)O[C@H]1C(=O)[C@@]2(C)[C@H]([C@H](OC(=O)c3ccccc3)[C@]3(O)C[C@H](OC(=O)[C@H](O)[C@@H](NC(=O)c4ccccc4)c4ccccc4)C(C)=C1C3(C)C)[C@]1(OC(C)=O)CO[C@@H]1C[C@@H]2O [Paclitaxel, reference compound]
[8]; 4.0 mg/kg
  Death Total: 0/5
[8]; 6.0 mg/kg
  Death Total: 1/5
  Test Day (Death) 2: 1
[8]; 9.0 mg/kg
  Death Total: 2/5
  Test Day (Death) 5: 2
[8]; 13.0 mg/kg
  Death Total: 4/5
  Test Day (Death) 1: 2
  Test Day (Death) 2: 2
[8]; 20.0 mg/kg
  Death Total: 5/5
  Test Day (Death) 1: 5
[9]; iv
  LD50: 9 to 13 mg/kg
[2]
  EC50: 0.3 nM
[3]; [13]
  Body weight Change Day 1: 100.0 ± 0.0%
  Body weight Change Day 3: 106.0 ± 1.5%
  Body weight Change Day 7: 99.2 ± 4.0 %
  Body weight Change Day 9: 97.1 ± 0%
[4]
  EC50: 0.9 nM
[5]
  EC50: 0.1 nM
[6]
  EC50: 0.1 nM
[7]
  EC50: 1.2 nM

## COc1c(OC(C)C)cc2c(c1OC)-c1ccc(SC)c(=O)cc1[C@@H](NC(=O)c1cccc(CO[N+](=O)[O-])c1F)CC2 [Example 9, 2-fluoro-N-[(7S)-3-isopropoxy-1,2-dimethoxy-10-methylsulfanyl-9-oxo-5,6,7,9-tetrahydro-benzo[a]heptalen-7-yl]-3-nitrooxymethyl-benzamide]
[2]
  EC50: 0.49 nM
[4]
  EC50: 0.13 nM
[5]
  EC50: 0.22 nM
[6]
  EC50: 0.64 nM
[7]
  EC50: 0.34 nM
